Laboratory results published in US20050165104A1, “Biocidal agents and veterinary methods” (priority 2002, published 2005).
Like-named read-outs stand apart in the source and are kept apart here. Marks after values point to notes of the source that are not given here.

Key:
Candida albicans = assay: Antimicrobial Diffusion Test (blood agar plate, zone of inhibition); format: cell-based
Experimental: (§1) The Antimicrobial Diffusion Test is used to determine the ability of a compound to inhibit growth of an organism. During the course of the test, each compound is treated as an unknown solution with an assigned number. After the data have been collected, the identity of the compound is assigned. In the test, a blood agar plate is inoculated with a known stock organism (fungus or bacteria). One drop of a numbered solution is applied to a freshly inoculated agar plate. A single numbered solution is applied per organism on a plate. The inoculated plate is examined on a daily basis for growth of the organism.
(§2) Areas of no microbial growth, or zones of inhibition are measured in millimeters and documented. If the plate is entirely covered with organism growth, there is no measurable zone of inhibition. After all zones of inhibition with the corresponding organisms and the solution number tested for sensitivity have been documented, each solution number is replaced by the correct solution name. The zones of inhibition are then used to establish relative in vitro resistance and sensitivity of the organism to the solution.

Escherichia coli = assay: as above; format: cell-based
Experimental: as §1, §2

Beta Streptococcus = assay: as above; format: cell-based; conditions: for zone of inhibition at 10000 µM / zone of inhibition at 100000 µM: Streptococcus, read-out: Inhibition, Beta Strep (zone of inhibition / relative potency); for zone of inhibition at 10000 µM: 0.01M (extracts: 0.01M total components)
Experimental: as §1, §2

[1] = pH of the tested solution; format: physicochemical
Staphylococcus aureus = assay: Antimicrobial Diffusion Test (blood agar plate, zone of inhibition); format: cell-based
Experimental: as §1, §2

Trichophyton rubrum = assay: as above; format: cell-based
Experimental: as §1, §2

Aspergillus fumigatus = assay: as above; format: cell-based
Experimental: as §1, §2

[2] = system: Candida albicans, Staphylococcus aureus, Beta Streptococcus, Escherichia coli, Aspergillus fumigatus, and Trichophyton rubrum; assay: Antimicrobial Diffusion Test, all organisms tested; format: cell-based; conditions: for specificity of inhibitory activities over the organisms tested (in words): summary of Table 1
Experimental: as §1, §2
Table 1 provides data comparing the efficacy of a number of different antimicrobial compounds of the present invention. Compounds were assayed at varying concentrations using the Antimicrobial Diffusion Test described above. Summary for data on the following compounds is listed: 3-n-propylphenol, 3-pentylphenol, 5-propylresorcinol, 3-isobutylphenol, 4-hexylresorcinol, phenol, phenylacetic acid, 3-hydroxoctanoic acid, a reconstituted metapleural gland secretion from Atta sexdens worker ant, a reconstituted metapleural gland secretion from Atta sexdens soldier ant, a reconstituted metapleural gland secretion from Atta cephalotes worker ant, a reconstituted metapleural gland secretion from Atta cephalotes soldier ant, metapleural gland secretion from C. deformis, Mycocide, Tineacide, and Penlac. […]

[3] = 0.1M (extracts: 0.1M total components), higher number = greater inhibition
[4] = 0.1M (extracts: 0.1M total components)
[5] = test solution 0.1M (extracts: 0.1M total components)
[6] = 0.1M (extracts: 0.1M total components), value unmarked
[7] = test solution 0.01M (extracts: 0.01M total components)
[8] = 0.01M (extracts: 0.01M total components)
[9] = 0.01M, value marked * (footnote not given)
[10] = 0.1M (extracts: 0.1M total components), value marked ** (footnote not given)
[11] = 0.1M, value marked * (footnote not given)

| Compound | Inhibition, Candida Albicans (zone of inhibition / relative potency) (Candida albicans; [3]) | Inhibition, E. coli (zone of inhibition / relative potency) (Escherichia coli; [4]) | pH [1, 5] | Inhibition, Staph aureus (zone of inhibition / relative potency) (Staphylococcus aureus; [4]) | zone of inhibition at 10000 µM (Beta Streptococcus) | zone of inhibition at 100000 µM (Beta Streptococcus; [4]) | Inhibition, Asp fumigatus (zone of inhibition / relative potency) (Aspergillus fumigatus; [4]) | pH [1, 7] | Inhibition, Candida Albicans (zone of inhibition / relative potency) (Candida albicans; [8]) | Inhibition, T. rubrum (zone of inhibition / relative potency) (Trichophyton rubrum; [9]) | Inhibition, T. rubrum (zone of inhibition / relative potency) (Trichophyton rubrum; [11]) | other results |
| --- | --- | --- | --- | --- | --- | --- | --- | --- | --- | --- | --- | --- |
| CCCCCC(O)CC(=O)O (centres unmarked) [3-hydroxoctanoic acid] | 12 mm | 13 mm | 6 | – | – | – | – | – | – | – | – | Inhibition, Beta Strep (zone of inhibition / relative potency) (Beta Streptococcus; [4]): 12 mm |
| CCCCCCCC(O)CC(=O)O (centres unmarked) [3-hydroxydecanoic acid] | 15 mm | 13 mm | 6 | 12 mm | 12 mm | 11 mm | 13 mm | 6.5 | – | – | – | Inhibition, T. rubrum (zone of inhibition / relative potency) (Trichophyton rubrum; [6]): 12 mm |
| CCCCCCCCCC(O)CC(=O)O (centres unmarked) [3-hydroxydodecanoic acid] | 8 mm | 10 mm | 6 | 9 mm | – | 10 mm | 7 mm | 6.5 | – | – | – | Inhibition, T. rubrum (zone of inhibition / relative potency) (Trichophyton rubrum; 0.01M, value unmarked): 10 mm; Inhibition, T. rubrum (zone of inhibition / relative potency) (Trichophyton rubrum; [6]): 14 mm |
| CCCc1cccc(O)c1 [3-n-propylphenol] | 13 mm | 17 mm | 6.5 | 14 mm | – | 15 mm | 10 mm | 6.5 | 13 mm | 12* mm | 21 mm | Inhibition, T. rubrum (zone of inhibition / relative potency) (Trichophyton rubrum; [10]): 14 mm; specificity of inhibitory activities over the organisms tested (in words) [2]: ability to inhibit growth of all organisms tested |
| CCCCCc1cccc(O)c1 [3-pentylphenol] | 21 mm | 15 mm | 6.5 | 18 mm | 15 mm | 18 mm | 25 mm | 6.5 | 15 mm | 16* mm | 65 mm | Inhibition, Staph aureus (zone of inhibition / relative potency) (Staphylococcus aureus; 0.01M): 14 mm; Inhibition, E. coli (zone of inhibition / relative potency) (Escherichia coli; 0.01M): 16 mm; Inhibition, T. rubrum (zone of inhibition / relative potency) (Trichophyton rubrum; [10]): 45 mm; side-by-side comparison against Penlac 0.1M on Trichophyton rubrum (in words) (Trichophyton rubrum; 0.1M each): unexpectedly superior; Inhibition, Asp fumigatus (zone of inhibition / relative potency) (Aspergillus fumigatus; 0.01M): 9 mm; inhibition of Aspergillus fumigatus growth (in words) (Aspergillus fumigatus; 0.1 M, FIG. 5): effective at inhibiting Aspergillus fumigatus growth; spectrum of effectiveness on the microorganisms tested (in words) ([2]; 0.1M, Table 1 row 3): exceptional broad spectrum effectiveness; specificity of inhibitory activities over the organisms tested (in words) [2]: ability to inhibit growth of all organisms tested |
| CCCCCCc1ccc(O)cc1O [4-hexylresorcinol] | 20 mm | 15 mm | 6.5 | 15 mm | 16 mm | 17 mm | 20 mm | 6.5 | 19 mm | 29* mm | 38* mm | Inhibition, Staph aureus (zone of inhibition / relative potency) (Staphylococcus aureus; 0.01M): 16 mm; Inhibition, E. coli (zone of inhibition / relative potency) (Escherichia coli; 0.01M): 17 mm; Inhibition, Asp fumigatus (zone of inhibition / relative potency) (Aspergillus fumigatus; 0.01M): 16 mm |
| CCCCCc1cc(O)cc(O)c1 [5-pentylresorcinol] | 19 mm | 17 mm | 6.5 | 16 mm | – | 20 mm | 20 mm | – | – | – | 47* mm | – |
| CCCc1cc(O)cc(O)c1 [5-propylresorcinol] | 14 mm | 15 mm | 6.5 | – | – | – | – | – | – | – | 14* mm | zone of inhibition at 100000 µM (Beta Streptococcus): 14 mm |
| O=C(O)Cc1c[nH]c2ccccc12 [indoleacetic acid] | – | – | – | – | – | 6 mm | – | – | – | – | – | – |
